# Columns and labels:
# AlgKXPp = AlgKXPp (Pseudomonas putida, UniProt Q88NC7+Q88ND0); experiment: NanoESI-MS ligand titration of the AlgK-AlgX mixture, Ka,kxL fitted from the ligand-bound fraction of the complex with a coupled-equilibria model, 200 mM aqueous ammonium acetate pH 7, 25 °C by the table title (21 °C in the methods).; format: binding; settings: n = 3
# Procedure: (§1) AlgXPp and AlgKPp stock solutions were buffer exchanged into 200 mM aqueous ammonium acetate (pH 7) using a 10 kDa cut-off Amicon 0.5 mL microconcentrators (EMD, Millipore, Billerica, MA). Stock solutions of oligosaccharides were prepared by dissolving a known amount of solid compound in Milli-Q water and stored at −20 °C until used. Nanoelectrospray (nanoESI) mass spectrometry measurements were performed on a Q Exactive Orbitrap (Orbitrap) mass spectrometer (Thermo Fisher Scientific, Bremen, Germany) and on a Q Exactive Ultra-High Mass Range Orbitrap mass spectrometer (Thermo Fisher Scientific, Bremen, Germany), both equipped with a nanoflow ESI source. NanoESI was performed by applying a voltage of ~0.8 kV to a platinum wire inserted into the nanoESI tip, which was produced from a borosilicate glass capillary (1.0 mm o.d., 0.78 mm i.d.) pulled to ~2 μm o.d. using a P − 1000 micropipette puller (Sutter Instruments, Novato, CA). The inlet capillary of the MS was heated to 120 °C, the S-lens RF level was set at 100, automatic gain control target was set at 1 × 10^6 with a maximum injection time of 200 ms. All MS data were acquired and processed using Thermo Xcalibur 4.1 software.
# (§2) The Ka,kx for the interaction of AlgKPp and AlgXPp with the formation of AlgKXPp complex was obtained using the Slow Mixing Mode (SLOMO) ESI-MS assay. Briefly, ~2 µL of a solution of AlgXPp (5 µM) and AlgKPp (3–10 µM) was introduced into the nanoESI tip, followed by injection of 10 µL of solution of AlgXPp (5 µM) and AlgKPp (45 µM). The binding measurements were carried out at 21 °C; time-resolved mass spectra were averaged over 1 min intervals and the sum of the charge state-normalized abundances of the […] and AlgKXPp complex ions were calculated automatically using the SWARM software (https://github.com/pkitov/CUPRA-SWARM)[72]. The corrected (for response factors) abundances of AlgXPp and AlgKXPp species were used to calculate R/(R+1) values for AlgKPp (designated as L) and AlgXPp (designated as P) interaction and association constant Ka,kx was found using Eq. (1) (Ka,kx in this case designated as Ka in Eq. (1)).
# (§3) 3b AlgXPpL⇌AlgXPp+L,Ka,xL=[AlgXPpL]/AlgXPp[L] 3c AlgKXPp⇌AlgKPp+AlgXPp,Ka,kx=[AlgKXPpL]/AlgKPp[AlgXPp] 3d AlgKXPpL⇌AlgKXPp+L,Ka,kxL=[AlgKXPL]/AlgKXPpLL
# (§4) The corresponding mass balance equations are shown below:4a [L]0=[L]+[AlgKPpL]+[AlgXPpL]+[AlgKXPpL] 4b [AlgKPp]0=[AlgKPp]+[AlgKPpL]+[AlgKXPp]+[AlgKXPpL] 4c [AlgXPp]0=[AlgXPp]+[AlgXPpL]+[AlgKXPp]+[AlgKXPpL] where […], […], and [L]0 are initial concentrations of AlgKPp, AlgXPp, and oligosaccharide ligand L; Ka,kL, Ka,xL, and Ka,kx are association constant values determined as described above, and Ka,kxL is unknown parameter found by the fitting of the model to experimental data.
# AlgXPp [1] = molecular target: T1, AlgXPp (Pseudomonas putida, UniProt Q88ND0); experiment: Direct nanoESI-MS binding assay of the single proteins with reference protein correction for nonspecific binding, 200 mM aqueous ammonium acetate pH 7, 25 °C by the table title (21 °C in the methods).; set-up: gene algX
# Procedure: as §1
# (§5) Association constants (Ka,kL and Ka,xL) for interactions of AlgKPp and AlgXPp with oligosaccharide ligands were obtained using the direct ESI-MS assay[68],[69]. The binding measurements were carried out at 21 °C, and the equilibrium mixtures were prepared by mixing aliquots of the stock solutions of proteins and ligands in aqueous ammonium acetate (200 mM). ESI-MS measurements were performed after a 1 h incubation time period. All mass spectra were corrected, when needed, for the occurrence of nonspecific carbohydrate-protein binding during the ESI process using the reference protein method. Ka,kL and Ka,xL values were determined from the abundance ratio (R) of the ligand-bound (PL) to free protein (P) ions (P can be AlgKPp or AlgXPp), after correction for nonspecific ligand binding, and the initial concentrations of protein ([P]0) and ligand ([L]0), Eq. (1):1 R/R+1=KaP0+KaL0+1−(1−KaL0+KaP0)^2+4KaL0/2KaP0 where R is taken to be equal to the corresponding equilibrium concentration ratio ([PL]/[P]) in solution, Eq. (2):2 R=∑Ab(PL)/∑Ab(P)=[PL]/[P] and Ka is Ka,kL or Ka,xL.
# Target sequence in this assay (Q88ND0 whole entry): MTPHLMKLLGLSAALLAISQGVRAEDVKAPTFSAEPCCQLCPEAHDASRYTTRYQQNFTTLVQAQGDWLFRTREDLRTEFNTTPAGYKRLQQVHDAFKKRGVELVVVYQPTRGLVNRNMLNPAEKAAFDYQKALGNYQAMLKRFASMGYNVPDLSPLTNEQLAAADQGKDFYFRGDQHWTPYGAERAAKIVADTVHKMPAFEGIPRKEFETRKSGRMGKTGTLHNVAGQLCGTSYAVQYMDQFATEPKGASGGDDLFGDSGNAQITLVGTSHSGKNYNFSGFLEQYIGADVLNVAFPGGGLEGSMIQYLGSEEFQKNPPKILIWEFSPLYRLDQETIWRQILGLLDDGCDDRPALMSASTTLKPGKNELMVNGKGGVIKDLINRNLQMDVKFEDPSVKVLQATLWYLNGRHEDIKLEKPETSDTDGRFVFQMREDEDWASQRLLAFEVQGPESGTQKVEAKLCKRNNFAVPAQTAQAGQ
# AlgKPp = AlgKPp (Pseudomonas putida, UniProt Q88NC7); experiment: as above; set-up: gene algK
# Procedure: as §1, §5
# AlgKXPp complex = molecular target: T2, AlgKXPp complex (Pseudomonas putida, UniProt Q88NC7+Q88ND0); experiment: ESI-MS alginate binding assay, AlgKXPp complex (binding model fit); settings: AlgKPp and AlgXPp 5 µM each, ligand 100 µM, ammonium acetate 200 mM pH 7.0
# T2 construct: Induced cells containing either pET26b P. putida AlgK^33–484 or pET24b P. putida AlgX^∆Nterm; His6 (C); made in house; host or cells: E. coli BL21 (DE3) CodonPlus (AlgK) and E. coli Lemo21 (DE3) (AlgX)
# Procedure: as §1, §3, §4
# AlgXPp [2] = molecular target: T1, AlgXPp; experiment: Slow Mixing Mode (SLOMO) ESI-MS assay of AlgKPp-AlgXPp complex formation; format: binding; set-up: His6 (C); made in house; host or cells: E. coli Lemo21 (DE3); settings: for Fraction of bound AlgX: mean, n = 3
# Procedure: as §1, §2
# [3] = read-out: Ka (M^-1) (AlgKPp), Ka (M^-1) (AlgXPp)
# Sequence of AlgKXPp (Q88ND0 whole entry, one chain of several): as the sequence (Q88ND0 whole entry) above
molecule,measurement,setting,value
"CCCO[C@@H]1O[C@H](C(=O)O)[C@@H](O[C@@H]2O[C@H](C(=O)O)[C@@H](O[C@@H]3O[C@H](C(=O)O)[C@@H](O[C@@H]4O[C@H](C(=O)O)[C@@H](O[C@@H]5O[C@H](C(=O)O)[C@@H](O[C@@H]6O[C@H](C(=O)O)[C@@H](O[C@@H]7O[C@H](C(=O)O)[C@@H](O)[C@H](O)[C@@H]7O)[C@H](O)[C@@H]6O)[C@H](O)[C@@H]5O)[C@H](O)[C@@H]4O)[C@H](O)[C@@H]3O)[C@H](O)[C@@H]2O)[C@H](O)[C@@H]1O [ManA7, heptamer of beta-D-mannuronic acid (1-4 linked, polyM heptasaccharide)]",Kd,AlgKXPp; read-out: Ka (M^-1) (AlgKXPp),1000 µM
same,Kd,AlgXPp [1]; [3],3850 µM
same,Kd,AlgKPp; [3],2380 µM
alginate heptasaccharide of alternating alpha-L-guluronate (G) and beta-D-mannuronate (M) [GMGMGMG],Ka (M^-1) (AlgKXPp),AlgKXPp,(18 ± 0.6) × 10^2 M-1
same,Ka (M^-1) (AlgKPp); Ka (M^-1) (AlgXPp),AlgXPp [1],(2.7 ± 0.3) × 10^2 M-1
"alginate hexasaccharide of alpha-L-guluronate (G) and beta-D-mannuronate (M), sequence GMGGMG",Ka (M^-1) (AlgKXPp),AlgKXPp,(5.4 ± 0.5) × 10^2 M-1
same,Ka (M^-1) (AlgKPp); Ka (M^-1) (AlgXPp),AlgXPp [1],(1.4 ± 0.3) × 10^2 M-1
same,Ka (M^-1) (AlgKPp); Ka (M^-1) (AlgXPp),AlgKPp,(3.0 ± 0.9) × 10^2 M-1
alginate hexasaccharide of alternating alpha-L-guluronate (G) and beta-D-mannuronate (M) [GMGMGM],Ka (M^-1) (AlgKXPp),AlgKXPp,(12 ± 0.7) × 10^2 M-1
same,Ka (M^-1) (AlgKPp); Ka (M^-1) (AlgXPp),AlgXPp [1],(4.5 ± 1.0) × 10^2 M-1
same,Ka (M^-1) (AlgKPp); Ka (M^-1) (AlgXPp),AlgKPp,(2.5 ± 0.1) × 10^2 M-1
"pentadeca-hyaluronic acid [HA15, reference compound]",ligand binding to AlgKXPp detected by ESI-MS,AlgKXPp complex,No ligand binding was detected
same,ligand binding to AlgKXPp detected by ESI-MS,AlgKXPp complex; listed as 15-mer of hyaluronic acid,no specific binding
"AlgKXPp: 1:1 complex of P. putida AlgK and AlgX (protein, UniProt Q88NC7 33-484; Q88ND0 25-479, looked up) Alginate biosynthesis protein … 1: CAGLPDQRLANEALKRGDTALAERNYKALADLGYSEAQVGLADIKVATRDPSQIKEAEATYRAAAATSPRAQARLGRLLVAKPDSTQAEREEAETLLKQAAKQGQSNTLIPLAMLYLSYPQSFPKVNAQQQIDQWRAAGNPEAGLAQVLLYRTQGTYDQHLGEVEKICKAALNTTDICYVELATVYQKRGQADQQAALLGQLKSAYARGAVPATRVDSVARVLADRSLGQTDEKTAKELLEQVAPANPASWVSLAQLVYDFPELGDTDQLMAYIDKGREAEQPRAELLLGRLYYEGKTLPADAQKAEQHLQAAAEAGEISAHYYLGQLYRRGYLGNVEPQKAVDHLLAAARGGQNSADYALAQLFSEGHGIRPQPGNAWVFAQLSQANPTPQSAELLQQLDQQLTPDQRNQAQQLLDQEKRARGSLAQGANSTLALEALQDDEKEVDGEDSL Alginate biosynthesis protein … 2: EDVKAPTFSAEPCCQLCPEAHDASRYTTRYQQNFTTLVQAQGDWLFRTREDLRTEFNTTPAGYKRLQQVHDAFKKRGVELVVVYQPTRGLVNRNMLNPAEKAAFDYQKALGNYQAMLKRFASMGYNVPDLSPLTNEQLAAADQGKDFYFRGDQHWTPYGAERAAKIVADTVHKMPAFEGIPRKEFETRKSGRMGKTGTLHNVAGQLCGTSYAVQYMDQFATEPKGASGGDDLFGDSGNAQITLVGTSHSGKNYNFSGFLEQYIGADVLNVAFPGGGLEGSMIQYLGSEEFQKNPPKILIWEFSPLYRLDQETIWRQILGLLDDGCDDRPALMSASTTLKPGKNELMVNGKGGVIKDLINRNLQMDVKFEDPSVKVLQATLWYLNGRHEDIKLEKPETSDTDGRFVFQMREDEDWASQRLLAFEVQGPESGTQKVEAKLCKRNNFAVPAQTAQAGQ",association constant (Ka) for 1:1 AlgKXPp complex formation,"AlgXPp [2]; SLOMO ESI-MS, AlgXPp 5 µM, 21 °C",8.9 ± 0.9 × 10^4 M^−1
"AlgK: P. putida KT2440 AlgK residues 33–484, His-tagged TPR-containing lipoprotein (protein) CAGLPDQRLAQEALERGDLATAQSNYQALAAMGYADAQVGLADMQVASGDSAQQAKAEKLYREAAQTSPRARARLGKWLAAKPGASDAEHREAERLLSQAFEQGEDSALVPLIVLYLQYPQSWPEIDPQQRIDQWRARGLPQADLAQIILYRTQGTYAQHLGEIEQVCQRWLRRMDVCWYELATVYQMQGNAEKQKVLLEQLRAAYKAGRVPGERVDSVAGVLADGELGQPDPQTAQALLEEIAPSYPAAWVSLAKLLYDYPDQGDLEKMLGYLKNAQDAAQPRAELLLGRLYYDGKWAPQDPRKAERHLLKAAASEPQANYYLGQIYRRGFLGKVYPQKAVDHLILAARAGQASADMALAQLWSQGRGIQPNRVNAYVFGQLAVQQQVPQASDLLGQIEAQLPPAERSQAQQLLKREQQSRGNNWQATVSLLQSQDSPINEEEPESL",Fraction of bound AlgX,AlgXPp [2]; concentration of AlgK 3 µM,0.22
same,Fraction of bound AlgX,AlgXPp [2]; concentration of AlgK 5 µM,0.24
same,Fraction of bound AlgX,AlgXPp [2]; concentration of AlgK 7.5 µM,0.31
same,Fraction of bound AlgX,AlgXPp [2]; concentration of AlgK 10 µM,0.42

# — publication PMC9734138, “Structure of the AlgKX modification and secretion complex required for alginate production and biofilm attachment in Pseudomonas aeruginosa” (Nature Communications, 2022)
